According to patent US8796302B2 (priority 2004, dated 2014):

Tests used:
Assay type in all cases: cell-based, rat
[1] = system: dopaminergic neurons in mesencephalic neuron-enriched cultures; assay: [3H]DA uptake in Aβ- or MPP+-treated neuron-enriched cultures
Experimental: Neuron-enriched culture were prepared from the ventral mesencephalic tissues of embryonic day 13-14 Fisher F344 rats (Charles River Laboratories, Raleigh, N.C.) as follows. Dissociated cells were seeded at 1×10^5/well in 96-well and 5×10^5/well to poly-D-lysine-coated 96-well and 24-well plates, respectively. Glial proliferation was suppressed by the inclusion of cytosine β-D-arabinocide (5-10 μM). Seven day old cultures were used for treatment, which were composed of 91% neurons, 9% astrocytes, and <0.1% microglia. The cultures were pre-treated with OM, 10^−5 M, 10^−10 M, and 10^−14M DM 30 minutes before treatment with vehicle alone, 4 μM Aβ or 0.5 μM MPP^+5 as in Example 1. DA uptake was also measured as in Example 1 and the results are expressed in both FIGS. 4A and B as a percentage of the control cultures and are the mean±S.E.M. of four individual experiments with triplicates in each experiment. […]
Neuron-enriched cultures seeded in 24-well culture plates were pretreated for 48 hours with 0.6 mM VPA followed by treatment with 0.5 μM MPP^+. [^3H]DA uptake was measured 7 days after MPP^+ treatment according to procedures described in Example 1. Results are expressed as mean±SEM of percentage of vehicle control from three independent experiments performed in duplicate. *,p<0.05 compared with vehicle-treated cultures. †, p<0.05 compared with corresponding MPP^+-treated cultures.

[2] = system: TNFα; assay: TNFα release (ELISA) after LPS
Experimental: (§1) Different pro-inflammatory factors that are released from microglia were also monitored. The production of NO was determined by measuring the accumulated levels of nitrite in the supernatant with the Griess reagent, and release of TNFα was measured with a rat TNFα enzyme-linked immunosorbent assay kit from R & D System (Minneapolis, Minn.).
Mesencephalic neuron-glia cultures were pretreated with VPA or vehicle control for 48 hours prior to stimulation with 20 ng/ml LPS. The release of TNF-α was determined 3 hours after LPS treatment. The release of TNFα, was measured with a rat TNFα enzyme-linked immunosorbent assay kit from R & D System (Minneapolis, Minn.).

[3] = system: intracellular reactive oxygen species; assay: Intracellular ROS (DCFH oxidation) after LPS
Experimental: The production of intracellular reactive oxygen species was measured by DCFH oxidation. The DCFH-DA (Molecular Probes, Eugene, Oreg.) reagent passively diffuses into cells in which it is hydrolyzed by intracellular esterase to liberate 2′-7′-dichlorofluoressein which, during reaction with oxidizing species, yields a highly fluorescent compound 2′-7′-dichlorofluorescein (DCF) that is trapped inside the cell. For each measurement, a fresh stock solution of CM-H2-DCFDA (5 mM) was prepared in dimethylsulfoxide. CM-H2-DCFDA, diluted to a final concentration of 1 μM in phenol red-free HBSS containing 2% FBS and 2% HS, was added to cultures and incubated for about 30 min at about 37° C. After washing two times with warm HBSS, vehicle or stimulators in HBSS were added to cultures. After incubation for about 30 min at about 37° C., fluorescence intensity was measured at 485 nm for excitation and 530 nm for emission using a SpectraMax Gemini XS fluorescence microplate reader (Molecular Devices).
The data are expressed as the percent of the control cultures and are the mean±SEM of three experiments performed in triplicate. *P<0.05, **P<0.01, compared to control.
Assay of intracellular ROS is performed as follows. 5-(and −6)-Chloromethyl-2′,7′-dichlorodihydrofluorescein diacetate (CM-H2-DCFDA) (Molecular Probes, Eugene, Oreg.), a chloromethyl derivative of H2-DCFDA, passively diffuses into cells in which it is hydrolyzed by intracellular esterases to liberate 2′-7′-dichlorofluorescein (DCF) which, during reaction with oxidizing species, yields a highly fluorescent compound that is trapped inside the cell. […] Cells were seeded at 1×10^5/well in 96-well plates for one day followed by treatment with 0.6 mM or 1.2 mM VPA for 24 h. The cultures were used for the assay of intracellular ROS.
After washing two times with warm Hank's balanced salt solution (HBSS), CM-H2-DCFDA, diluted to a final concentration of 1 μM in phenol red-free HBSS, was added to cultures and incubated for 30 min at 37° C. Then cultures were added with 0.6 or 1.2 mM VPA in HBSS again for 30 min and followed the treatment with 100 ng/ml LPS for 2 hours at 37° C., fluorescence intensity was measured at 485 nm for excitation and 530 nm for emission using a SpectraMax Gemini XS fluorescence microplate reader (Molecular Devices, Sunnyvale, Calif.).

[4] = system: microglia in neuron-glia cultures; assay: OX-42 immunostaining of LPS-induced microglial activation; conditions: for LPS-induced activation of microglia (OX-42): LPS 5 ng/ml, 12 h
Experimental: Dopaminergic neurons were recognized with the anti-TH antibody and microglia were detected with the OX-42 antibody, which recognizes the CR3 receptor. This was accomplished as follows: 3.7% formaldehyde-fixed cultures were treated with 1% hydrogen peroxide for about 10 minutes followed by sequential incubation with a blocking solution (30 min), primary antibody (overnight, 4° C.), biotinylated secondary antibody (2 hours), and ABC reagents (40 min). The color was developed with 3,3′-diaminobenzidine.
Neuron-glia cultures were prepared and treated with vehicle, LPS (5 ng/ml), or LPS plus DM respectively as in Example 1. Twelve hours later, cultures were immunostained with anti-OX-42 antibody. Images shown are representative of three separate experiments. The immunostaining and morphological analysis was accomplished as in Example 2.
Mesencephalic neuron-glia cultures were pretreated with VPA for 48 h and then treated with 20 ng/ml LPS for 72 h, as described in Example 19. Immunostaining with an antibody against OX-42 was then performed, as described in Example 19.

[5] = system: NO; assay: NO production (nitrite, Griess reagent) after LPS; conditions: for LPS-stimulated NO production (nitrite): 24 after LPS 20 ng/ml
Experimental: as §1
The cultures were prepared as in Example 1 and were first treated with LPS 20 ng/ml or vehicle; 12 hours later the LPS was removed and the cultures were treated with 10^−5 M, 10^−10M, and 10^−14M DM. Twenty four hours later, nitrite oxide and PGE2 production were assessed as in Example 5. The results are expressed as a percentage of LPS treated culture and are the mean±S.E.M of four and three experiments with triplicates in each experiment. *, p<0.05 compared with the LPS-treated culture. ###, P<0.001 compared with the control culture.
Production of nitric oxide (NO) was determined in the mesencephalic neuron-glia cultures, following pretreatment and LPS stimulation as described above, by measuring the accumulated levels of nitrite in the supernatant with Griess reagent. Accumulation of nitrite, an indicator of LPS-stimulated production of NO, was determined 24 after LPS stimulation.

[6] = DM 10^−5 M and 10^−14 M pretreatment

SMILES | Aβ (1-42)-induced reduction of DA uptake ([1]; DM 10^−5, 10^−10, 10^−14 M, Aβ (1-42) 4 μM, 9 days, neuron-enriched) | LPS-induced increase in the release of TNFα [2, 6] | LPS-induced increase in the release of TNFα ([2]; DM 10^−10 M pretreatment) | LPS-induced increase in intracellular reactive oxygen species [3, 6] | LPS-induced increase in intracellular reactive oxygen species ([3]; DM 10^−10 M pretreatment) | LPS-induced activation of microglia (OX-42) ([4]; DM 10^−5 M and 10^−14 M) | LPS-induced activation of microglia (OX-42) ([4]; DM 10^−10 M) | LPS-induced increase in the release of NO [5, 6] | LPS-induced increase in the release of NO ([5]; DM 10^−10 M pretreatment) | NO production, post treatment ([5]; femtomolar DM after removal of LPS (20 ng/ml, 12 h), 24 h) | MPP+-induced degeneration of DA neurons (DA uptake) ([1]; VPA 0.6 mM, 48 hours pretreatment, MPP+ 0.5 μM, 7 days) | LPS-induced TNFα production ([2]; VPA 0.2 mM, 48 h pretreatment, 3 h after LPS 20 ng/ml) | LPS-induced production of TNFα ([2]; VPA 0.4 or 0.6 mM, 48 h pretreatment, 3 h after LPS 20 ng/ml) | LPS-induced increase of iROS level ([3]; VPA 0.6 or 1.2 mM pretreatment, enriched microglia, LPS 100 ng/ml 2 h) | basal iROS levels ([3]; VPA alone 0.6 mM, enriched microglia) | LPS-stimulated activation of microglia (OX-42) ([4]; VPA 0.4 or 0.6 mM, 48 h pretreatment, LPS 20 ng/ml 72 h) | microglia activation (OX-42), VPA alone ([4]; VPA alone) | LPS-stimulated NO production (nitrite) ([5]; VPA 0.4 mM pretreatment) | LPS-stimulated NO production (nitrite) ([5]; VPA 0.6 mM pretreatment)
COc1ccc2c(c1)[C@@]13CCCC[C@H]1[C@@H](C2)N(C)CC3 [DM, d-3-methoxy-N-methylmorphinan] | did not significantly alter | significantly decreased | no significant reduction | significantly decreased | no significant reduction | prevented the LPS-induced activation of microglia | didn't significantly inhibit microglia activation | significantly decreased | no significant reduction | reduction of NO and PGE2 production | – | – | – | – | – | – | – | – | –
CCCC(CCC)C(=O)O [VPA, Valproic acid] | – | – | – | – | – | – | – | – | – | – | blocked | significant inhibited | completely blocked | completely blocked | reduced basal iROS levels | suppressed | did not show significant effects on microglia activation | 54 % of the control | 78 % of the control
